{
  "source": "patent US7223865B2",
  "about": "“Chromogenic compounds, and use thereof as enzyme substrates” (Biomerieux, priority 2003, dated 2007)",
  "assay_in_all_cases": "L-alanine-aminopeptidase activity on gelled medium, Example 8",
  "type_in_all_cases": "cell-based",
  "parameters_in_all_cases": "key to growth: ++ means good growth; + means moderate growth; +/− means poor growth; NG means no growth",
  "key": {"[1]": {"tested_on": "Enterococcus faecalis (NCTC 12697)", "experimental": "(§1) A gelled medium comprising these three substrates is prepared as follows: 30 mg of each substrate are dissolved (heating) in 10 ml of sterile distilled water. Ten ml of this solution are then added to 90 ml of Columbia agar kept molten at 50° C.\n(§2) Various strains of microorganisms derived from the NCTC collection (National Collection of Type Cultures, Colindale, UK) were seeded onto the media thus obtained according to multipoint inoculation: for each strain, a drop of 10 μl of a suspension at 0.5 McFarland is deposited onto each of the culture media.\n(§3) The colonies formed were examined visually after incubation for 24 h and 48 h. The color and the growth of these colonies were noted."}, "[2]": {"tested_on": "Staphylococcus aureus (NCTC 11939)", "experimental": "as §1, §2, §3"}, "[3]": {"tested_on": "Enterococcus faecium (NCTC 7171)", "experimental": "as §1, §2, §3"}, "[4]": {"tested_on": "Enterococcus faecalis (NCTC 755)", "experimental": "as §1, §2, §3"}, "[5]": {"tested_on": "Salmonella typhimurium (NCTC 74)", "experimental": "as §1, §2, §3"}, "[6]": {"tested_on": "Burkholderia cepacia (NCTC 10743)", "experimental": "as §1, §2, §3"}, "[7]": {"tested_on": "Salmonella poona (NCTC 4840)", "experimental": "as §1, §2, §3"}, "[8]": {"tested_on": "Klebsiella pneumoniae (NCTC 10896)", "experimental": "as §1, §2, §3"}, "[9]": {"tested_on": "Staphylococcus aureus (NCTC 6571)", "experimental": "as §1, §2, §3"}, "[10]": {"tested_on": "Listeria monocytogenes (NCTC 11994)", "experimental": "as §1, §2, §3"}, "[11]": {"tested_on": "Pseudomonas aeruginosa (NCTC 10662)", "experimental": "as §1, §2, §3"}, "[12]": {"tested_on": "Shigella sonnei (NCTC 9774)", "experimental": "as §1, §2, §3"}, "[13]": {"tested_on": "Enterobacter cloacae (NCTC 11936)", "experimental": "as §1, §2, §3"}, "[14]": {"tested_on": "Serratia marcescens (NCTC 10211)", "experimental": "as §1, §2, §3"}, "[15]": {"tested_on": "E. coli O157 (NCTC 12079)", "experimental": "as §1, §2, §3"}},
  "data": [
    {"smiles": "C[C@H](N)C(=O)N[C@@H](C)C(=O)Nc1ccc(-c2c3ccccc3[n+](C)c3ccccc23)cc1.[Cl-]", "note": "[L-Ala-L-Ala-4-AP-10-MA]", "values": [
      {"measurement": "color of colonies", "setting": "[1]; 24 h", "value": "Colorless"},
      {"measurement": "growth", "setting": "[1]; 24 h", "value": "++"},
      {"measurement": "color of colonies", "setting": "[1]; 48 h", "value": "Colorless"},
      {"measurement": "growth", "setting": "[1]; 48 h", "value": "++"},
      {"measurement": "color of colonies", "setting": "[2]; 24 h", "value": "Colorless"},
      {"measurement": "growth", "setting": "[2]; 24 h", "value": "++"},
      {"measurement": "color of colonies", "setting": "[2]; 48 h", "value": "Colorless"},
      {"measurement": "growth", "setting": "[2]; 48 h", "value": "++"},
      {"measurement": "color of colonies", "setting": "[3]; 24 h", "value": "Colorless"},
      {"measurement": "growth", "setting": "[3]; 24 h", "value": "++"},
      {"measurement": "color of colonies", "setting": "[3]; 48 h", "value": "Colorless"},
      {"measurement": "growth", "setting": "[3]; 48 h", "value": "++"},
      {"measurement": "color of colonies", "setting": "[4]; 24 h", "value": "Colorless"},
      {"measurement": "growth", "setting": "[4]; 24 h", "value": "++"},
      {"measurement": "color of colonies", "setting": "[4]; 48 h", "value": "Colorless"},
      {"measurement": "growth", "setting": "[4]; 48 h", "value": "++"},
      {"measurement": "color of colonies", "setting": "[5]; 24 h", "value": "Orange"},
      {"measurement": "growth", "setting": "[5]; 24 h", "value": "++"},
      {"measurement": "color of colonies", "setting": "[5]; 48 h", "value": "Orange"},
      {"measurement": "growth", "setting": "[5]; 48 h", "value": "++"},
      {"measurement": "color of colonies", "setting": "[6]; 24 h", "value": "Orange"},
      {"measurement": "growth", "setting": "[6]; 24 h", "value": "++"},
      {"measurement": "color of colonies", "setting": "[6]; 48 h", "value": "Orange"},
      {"measurement": "growth", "setting": "[6]; 48 h", "value": "++"},
      {"measurement": "color of colonies", "setting": "[7]; 24 h", "value": "Orange"},
      {"measurement": "growth", "setting": "[7]; 24 h", "value": "++"},
      {"measurement": "color of colonies", "setting": "[7]; 48 h", "value": "Orange"},
      {"measurement": "growth", "setting": "[7]; 48 h", "value": "++"},
      {"measurement": "color of colonies", "setting": "[8]; 24 h", "value": "Orange"},
      {"measurement": "growth", "setting": "[8]; 24 h", "value": "++"},
      {"measurement": "color of colonies", "setting": "[8]; 48 h", "value": "Orange"},
      {"measurement": "growth", "setting": "[8]; 48 h", "value": "++"},
      {"measurement": "growth", "setting": "[9]; 24 h", "value": "NG"},
      {"measurement": "growth", "setting": "[9]; 48 h", "value": "NG"},
      {"measurement": "color of colonies", "setting": "[10]; 24 h", "value": "Colorless"},
      {"measurement": "growth", "setting": "[10]; 24 h", "value": "++"},
      {"measurement": "color of colonies", "setting": "[10]; 48 h", "value": "Colorless"},
      {"measurement": "growth", "setting": "[10]; 48 h", "value": "++"},
      {"measurement": "color of colonies", "setting": "[11]; 24 h", "value": "Orange"},
      {"measurement": "growth", "setting": "[11]; 24 h", "value": "++"},
      {"measurement": "color of colonies", "setting": "[11]; 48 h", "value": "Orange"},
      {"measurement": "growth", "setting": "[11]; 48 h", "value": "++"},
      {"measurement": "color of colonies", "setting": "[12]; 24 h", "value": "Orange"},
      {"measurement": "growth", "setting": "[12]; 24 h", "value": "++"},
      {"measurement": "color of colonies", "setting": "[12]; 48 h", "value": "Orange"},
      {"measurement": "growth", "setting": "[12]; 48 h", "value": "++"},
      {"measurement": "color of colonies", "setting": "[13]; 24 h", "value": "Orange"},
      {"measurement": "growth", "setting": "[13]; 24 h", "value": "++"},
      {"measurement": "color of colonies", "setting": "[13]; 48 h", "value": "Orange"},
      {"measurement": "growth", "setting": "[13]; 48 h", "value": "++"},
      {"measurement": "color of colonies", "setting": "[14]; 24 h", "value": "Orange"},
      {"measurement": "growth", "setting": "[14]; 24 h", "value": "++"},
      {"measurement": "color of colonies", "setting": "[14]; 48 h", "value": "Orange"},
      {"measurement": "growth", "setting": "[14]; 48 h", "value": "++"},
      {"measurement": "color of colonies", "setting": "[15]; 24 h", "value": "Orange"},
      {"measurement": "growth", "setting": "[15]; 24 h", "value": "++"},
      {"measurement": "color of colonies", "setting": "[15]; 48 h", "value": "Orange"},
      {"measurement": "growth", "setting": "[15]; 48 h", "value": "++"}
    ]}
  ]
}
